Columns and labels:
[1] = test system: gastric mucosal injury caused by loxoprofen [ロキソプロフェンに起因する胃粘膜障害]; assay: Suppression of loxoprofen-induced gastrointestinal injury in rats (Test Examples 3, 6, 9, 12, 15, 24); format: in vivo, rat (Wistar); conditions: rat, 1 h before loxoprofen sodium hydrate 120 mg/kg p.o., result in words
[2] = Interaction study: storage of loxoprofen sodium hydrate/drug mixtures and of the single drugs at 60 °C (Test Examples 1, 4, 7, 10, 13, 16, 18, 20, 21, 23, 25, 27); format: physicochemical; conditions: stored 1 week in glass bottle (3K), evaluated at start, 1 day, 3 days (2 days in Test Examples 10 and 16) and 1 week

Compound	state in the glass bottle on storage [2]	further results
C[C@@H]([C@H](O)c1ccccc1)N(C)C.Cl [dl−メチルエフェドリン塩酸塩]	変化は生じなかった	reduction of loxoprofen-induced gastric mucosal injury ([1]; oral, 20, 60, 180 mg/5 mL/kg): 軽減した
Nc1c(Br)cc(Br)cc1CN[C@H]1CC[C@H](O)CC1 [アンブロキソール塩酸塩]	変化は生じなかった	–
CN(C)CCOC(c1ccc(Cl)cc1)c1ccccn1 (centres unmarked) [カルビノキサミンマレイン酸塩]	変化は生じなかった	reduction of loxoprofen-induced gastric mucosal injury ([1]; oral, 0.75, 75 mg/5 mL/kg): 軽減した
CN1CCC[C@@H]1CCO[C@](C)(c1ccccc1)c1ccc(Cl)cc1 [クレマスチンフマル酸塩]	変化は生じなかった	reduction of loxoprofen-induced gastric mucosal injury ([1]; oral, 1 mg/5 mL/kg): 軽減した
CN(C)CC[C@@H](c1ccc(Cl)cc1)c1ccccn1.O=C(O)/C=C\C(=O)O [クロルフェニラミンマレイン酸塩, d−クロルフェニラミンマレイン酸塩]	変化は生じなかった	reduction of loxoprofen-induced gastric mucosal injury ([1]; oral, 5, 40 mg/5 mL/kg): 軽減した
COc1ccccc1OCC(O)CO (centres unmarked) [グアイフェネシン]	変化は生じなかった	–
COc1ccc2c3c1O[C@H]1[C@@H](O)CC[C@H]4[C@@H](C2)N(C)CC[C@@]341 [ジヒドロコデインリン酸塩]	–	reduction of loxoprofen-induced gastric mucosal injury ([1]; oral, 8, 24, 72 mg/5 mL/kg, n=6): 軽減した
CN1CCC(OC(c2ccccc2)c2ccccc2)CC1 [ジフェニルピラリン塩酸塩]	変化は生じなかった	reduction of loxoprofen-induced gastric mucosal injury ([1]; oral, 3, 10 mg/5 mL/kg): 軽減した
COc1ccc2c(c1)[C@]13CCCC[C@@H]1[C@H](C2)N(C)CC3 [デキストロメトルファン臭化水素酸塩水和物]	変化は生じなかった	–
CN(Cc1cc(Br)cc(Br)c1N)C1CCCCC1 [ブロムヘキシン塩酸塩]	変化は生じなかった	–
CC(C(=O)[O-])c1ccc(CC2CCCC2=O)cc1.O.O.[Na+] (centres unmarked) [ロキソプロフェンナトリウム水和物, Monosodium 2-[4-[(2-oxocyclopentyl)methyl]phenyl]propanoate dihydrate]	変化は生じなかった	–
リゾチーム塩酸塩: リゾチーム塩酸塩 (lysozyme hydrochloride)	変化は生じなかった	–

Source: patent JP2013032353A, “ロキソプロフェン含有医薬組成物” (priority 2011, dated 2013)
